From PMC11949107, “Polyunsaturated fatty acids and their endocannabinoid-related metabolites activity at human TRPV1 and TRPA1 ion channels expressed in HEK-293 cells” (PeerJ, 2025)
Several values for one entry are separate records, joined by “and”; a condition that tells them apart may be missing. Equal values may be shown once.

Key:
human TRPV1 [1] = molecular target: T1, human TRPV1 (Homo sapiens, UniProt Q8NER1); assay: Calcium 5 dye [Ca]i assay in HEK-293 Flp-In T-REx cells expressing TRPV1 (agonist response); type: cell-based; details: for Change in Ca5 fluorescence, individual experiments (CRC raw data): TRPV1 cells
T1 construct: Life Technologies (cells); host or cells: Flp-In T-REx HEK-293
In short: (§1)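 Tetracycline-induced (1 µg ml^−1, 4 h) HEK-293 T-REx cells loaded with Calcium 5 dye plus 1.25 mM probenecid for 1 h; agonist added after 1 min baseline (0.1% DMSO final), fluorescence (485/525 nm) read every 2 s for 5 min at 37 °C. Response as % change from baseline, solvent-subtracted; EC50/Emax from three-parameter logistic fit, given as pEC50.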

human TRPV1 [2] = molecular target: T1, human TRPV1; assay: PMA (phorbol ester) potentiation of TRPV1 responses in HEK-293 TRPV1 cells; type: cell-based; parameters: key to Drugs alone, individual experiments: change in [Ca]i as % of pre-drug baseline
HEK-293 EV cells = assay: Calcium 5 dye [Ca]i assay in HEK-293 empty vector (EV) cells; type: cell-based, human; details: 10 µM; HEK-293 EV cells; percentage of predrug baseline
In short: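 Tetracycline at 1 µg ml^−1 was added 4 h before testing; cells were loaded with Calcium 5 dye for 1 h and read at 37 °C, with drug added after 1 min baseline (final 0.1% DMSO). The response was the % change from the 60 s baseline after solvent subtraction, and EC50/Emax came from a three-parameter logistic fit, reported as pEC50.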

human TRPV1 [3] = molecular target: T1, human TRPV1; assay: Pre-incubation with PUFAs or capsazepine, then capsaicin (10 nM) response in HEK-293 TRPV1 cells; type: cell-based
Description: Intracellular calcium [Ca]i levels were assessed using the calcium 5 kit from Molecular Devices (# R8186, Sunnyvale, CA, USA) on a FlexStation 3 Microplate Reader (Molecular Devices, Sunnyvale, CA, USA). […] Probenecid (cat # 50027; Biotium) which helps to prevent expulsion of calcium indicator from the cells was added to a final concentration of 1.25 mM. 90 µL of the dye were loaded into each well of the plate and incubated for 1 h before reading in the FlexStation 3 at 37 °C. Fluorescence was recorded every 2 s (λ excitation = 485 nm, λ emission = 525 nm) for 5 min. After 1 min of baseline recording, 20 µL of the drug, dissolved in HBSS with 1% dimethyl sulfoxide (DMSO) (cat # D2650; Sigma-Aldrich, Melbourne, Australia) was added (final DMSO concentration was 0.1% in well). […]

human TRPA1 = molecular target: T2, human TRPA1 (Homo sapiens, UniProt O75762); assay: Calcium 5 dye [Ca]i assay in HEK-293 Flp-In T-REx cells expressing TRPA1 (agonist response); type: cell-based; details: for [Ca]i response (change in fluorescence), individual replicates: sheet Figure 4
T2 construct: Life Technologies (cells); host or cells: Flp-In T-REx HEK-293
In short: as §1

T2 sequence (O75762 whole entry): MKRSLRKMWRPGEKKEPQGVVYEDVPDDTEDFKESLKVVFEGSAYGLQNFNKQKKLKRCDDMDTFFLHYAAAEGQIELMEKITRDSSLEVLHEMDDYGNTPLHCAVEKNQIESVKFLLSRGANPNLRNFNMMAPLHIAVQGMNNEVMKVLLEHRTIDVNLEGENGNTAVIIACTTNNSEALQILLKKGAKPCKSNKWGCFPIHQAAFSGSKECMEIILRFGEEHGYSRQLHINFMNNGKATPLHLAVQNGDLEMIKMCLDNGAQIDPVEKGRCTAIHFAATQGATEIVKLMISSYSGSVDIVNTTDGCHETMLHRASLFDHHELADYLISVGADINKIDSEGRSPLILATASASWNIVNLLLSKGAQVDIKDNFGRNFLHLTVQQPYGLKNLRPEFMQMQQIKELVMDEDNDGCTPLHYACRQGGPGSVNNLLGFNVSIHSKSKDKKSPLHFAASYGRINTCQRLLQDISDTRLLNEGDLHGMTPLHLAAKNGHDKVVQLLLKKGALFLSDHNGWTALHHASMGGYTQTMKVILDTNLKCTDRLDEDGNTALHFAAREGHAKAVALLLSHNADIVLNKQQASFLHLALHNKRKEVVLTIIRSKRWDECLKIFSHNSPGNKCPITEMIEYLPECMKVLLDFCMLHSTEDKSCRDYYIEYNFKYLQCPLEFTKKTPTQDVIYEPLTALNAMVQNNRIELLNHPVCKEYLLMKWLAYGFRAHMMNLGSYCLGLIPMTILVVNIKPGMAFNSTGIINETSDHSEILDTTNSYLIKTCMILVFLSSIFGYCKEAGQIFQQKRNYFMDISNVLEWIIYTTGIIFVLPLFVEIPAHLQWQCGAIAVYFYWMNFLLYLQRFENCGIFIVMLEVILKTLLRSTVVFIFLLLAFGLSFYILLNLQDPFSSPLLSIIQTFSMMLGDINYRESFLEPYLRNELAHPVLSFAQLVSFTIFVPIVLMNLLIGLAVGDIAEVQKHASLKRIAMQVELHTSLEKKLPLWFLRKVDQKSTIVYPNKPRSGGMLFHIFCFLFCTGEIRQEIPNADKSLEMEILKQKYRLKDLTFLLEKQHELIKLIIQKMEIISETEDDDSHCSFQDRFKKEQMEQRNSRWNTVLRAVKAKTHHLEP
T1 sequence (Q8NER1 whole entry): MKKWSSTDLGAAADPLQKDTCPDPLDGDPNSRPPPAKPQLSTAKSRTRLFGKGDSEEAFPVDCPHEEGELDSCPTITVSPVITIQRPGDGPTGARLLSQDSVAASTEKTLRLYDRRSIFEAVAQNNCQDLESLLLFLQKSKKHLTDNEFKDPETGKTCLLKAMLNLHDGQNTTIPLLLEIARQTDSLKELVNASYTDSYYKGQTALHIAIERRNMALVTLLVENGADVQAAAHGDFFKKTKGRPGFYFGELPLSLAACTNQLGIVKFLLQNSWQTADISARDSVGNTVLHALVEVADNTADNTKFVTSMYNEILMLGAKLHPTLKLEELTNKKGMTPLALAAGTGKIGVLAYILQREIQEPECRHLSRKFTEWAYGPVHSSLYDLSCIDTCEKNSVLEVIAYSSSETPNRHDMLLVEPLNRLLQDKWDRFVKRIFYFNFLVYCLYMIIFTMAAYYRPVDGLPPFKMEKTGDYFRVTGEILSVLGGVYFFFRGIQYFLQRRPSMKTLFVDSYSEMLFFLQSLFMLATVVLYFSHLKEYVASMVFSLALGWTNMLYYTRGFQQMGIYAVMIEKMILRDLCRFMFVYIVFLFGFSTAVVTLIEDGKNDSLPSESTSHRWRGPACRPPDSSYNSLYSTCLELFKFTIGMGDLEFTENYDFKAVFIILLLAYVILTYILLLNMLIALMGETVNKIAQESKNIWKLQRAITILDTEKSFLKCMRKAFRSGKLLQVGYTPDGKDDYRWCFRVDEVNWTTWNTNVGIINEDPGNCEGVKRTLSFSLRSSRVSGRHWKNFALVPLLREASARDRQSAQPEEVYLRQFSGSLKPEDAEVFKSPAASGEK

CC/C=C\C/C=C\C/C=C\C/C=C\C/C=C\CCCC(=O)O [EPA, eicosapentaenoic acid] was tested, and the “Elevation of [Ca]i in HEK-293 TRPV1 cells compared with HEK-293 EV cells” value (human TRPV1 [1]; 10 µM) was “did not produce a notable change”, the “Change of Ca5 fluorescence, Mean ± SEM, TRPV1 (10 µM)” value (human TRPV1 [1]; 10 µM, HEK-293 TRPV1 cells, percentage of predrug baseline) was 16 ± 5% and the Emax at 30 µM (human TRPV1 [1]; HEK293, read-out: Emax ± SEM % TRPV1 (30 µM)) was 34 ± 5%. The “Change in Ca5 fluorescence, individual experiments (CRC raw data)” value (shortened to “Change in Ca5 fluorescence”) (human TRPV1 [1]; log concentration -4.52288 (M)) was 41.79 and 35.9904 and 24.921 and 28.9142 and 55.0634 and 19.9806, the “Change in Ca5 fluorescence” value (human TRPV1 [1]; log concentration -5 (M)) was 41.213 and 9.61 and 11.6653 and 7.673 and 15.0259 and 7.993 and the “Change in Ca5 fluorescence” value (human TRPV1 [1]; log concentration -5.52288 (M)) was 10.434 and 4.673 and 8.042 and 0.3072. The “Change in Ca5 fluorescence” value (human TRPV1 [1]; log concentration -6 (M)) was 6.783 and 4.449 and 9.084 and 5.542 and 3.583 and -0.1759, the “Change in Ca5 fluorescence” value (human TRPV1 [1]; log concentration -6.52288 (M)) was 4.775 and 5.179 and 8.63 and 0.2635 and the “Change in Ca5 fluorescence” value (human TRPV1 [1]; log concentration -7 (M)) was 4.257 and 3.906 and 5.164 and 0.2974. For the same compound, the “TRPV1 response after exposure to PMA” value (human TRPV1 [2]; PMA 100 nM, 5 min pretreatment) was “only observed when a phorbol ester was present”, the “Drugs post-PMA, individual experiments” value (human TRPV1 [2]; PUFA 10 µM after PMA 100 nM for 5 min, response to PMA alone subtracted) was 49.2015 and 39.5321 and 37.0404 and 36.9714 and 31.5302 and 32.9212 and the “Drugs alone, individual experiments” value (human TRPV1 [2]; PUFA 10 µM without PMA pretreatment, TRPV1 cells) was 7.525 and 11.4184 and 9.766 and 10.5311 and 6.999 and 3.475 and 2.716 and 6.787 and 18.8884. For the same compound, the “Change of Ca5 fluorescence, Mean ± SEM, EV (10 µM)” value (HEK-293 EV cells) was 14 ± 5%, the “Effect of pre-treatment on the capsaicin response” value (human TRPV1 [3]; 10 µM, 5 min exposure, then capsaicin 10 nM) was “did not affect” and the “Post-capsaicin: response to subsequent capsaicin addition, individual experiments” value (human TRPV1 [3]; capsaicin 10 nM after 5 min drug 10 µM, TRPV1 cells) was 203.333 and 227.843 and 146.783 and 264.915 and 237.782 and 308.835. The “Pre-capsaicin: response to first drug, individual experiments” value (human TRPV1 [3]; drug 10 µM for 5 min, TRPV1 cells) was 16.1107 and 14.1511 and 10.793 and 4.456 and 14.6833 and 13.0981, the “Elevation of [Ca]i in HEK-293 TRPA1 cells compared with HEK-293 EV cells” value (human TRPA1; 10 µM (cinnamaldehyde 300 µM)) was “did not produce a change” and the “Change of Ca5 fluorescence, Mean ± SEM, TRPA1 (10 µM)” value (human TRPA1; 10 µM, HEK-293 TRPA1 cells, percentage of predrug baseline) was 58 ± 42%. The “TRPA1 activation at the highest concentration tested” value (human TRPA1; 30 µM) was “activated TRPA1”, the Emax at 30 µM (human TRPA1; HEK293, read-out: Emax ± SEM % TRPA1 (30 µM), highest tested concentration (30 µM) or derived from concentration-response curves (cinnamaldehyde)) was 232 ± 67% and the “[Ca]i response (change in fluorescence), individual replicates” value (from here on “[Ca]i response (change in fluorescence)”) (human TRPA1; concentration -4.52288 (log)) was 377.608 and 117.826 and 193.269 and 60.6586 and 155.376 and 486.394. The “[Ca]i response (change in fluorescence)” value (human TRPA1; concentration -5 (log)) was 17.4998 and 14.5924 and 9.889 and 12.76 and 22.7093 and 269.088, the “[Ca]i response (change in fluorescence)” value (human TRPA1; concentration -5.52288 (log)) was 2.522 and 3.13 and 3.703 and 4.731 and the “[Ca]i response (change in fluorescence)” value (human TRPA1; concentration -6 (log)) was 1.85 and 3.994 and 3.577 and 9.657 and 3.961 and 6.207. For the same compound, the “[Ca]i response (change in fluorescence)” value (human TRPA1; concentration -6.52288 (log)) was 1.392 and 2.613 and 2.728 and 11.1533 and the “[Ca]i response (change in fluorescence)” value (human TRPA1; concentration -7 (log)) was 0.08029 and 3.966 and 3.106 and 5.407.
